ChEMBL document CHEMBL1795300, “Fluorescent phosphoinositide 3-kinase inhibitors suitable for monitoring of intracellular distribution” (Bioorg Med Chem, 2011)

Tests used:
[1] = Inhibition of PI3K assessed as amount of ADP produced preincubated with compound and L-alpha-phosphatidylinositol for 5 mins by Glo Max luminescent kinase assay
T47D = assay: Antiproliferative activity against human T47D cells after 48 hrs by MTT assay; format: functional, cell-based
SK-BR-3 = assay: Antiproliferative activity against human SKBR3 cells after 48 hrs by MTT assay; format: functional, cell-based; settings: SK-BR-3, 48 h
MCF7 = assay: Antiproliferative activity against human MCF7 cells after 48 hrs by MTT assay; format: functional, cell-based; settings: MCF7, 48 h

Compound | IC50 [1] [µM] | IC50 (T47D) [µM] | IC50 (SK-BR-3) [µM] | IC50 (MCF7) [µM]
COc1ccc(-n2c(-c3ccc(N(C)C)cc3)nc3c2c(=O)n(C)c(=O)n3C)cc1OC | 25 | – | – | –
COc1ccc(-n2c(-c3cncc(NS(=O)(=O)c4ccccc4)c3)nc3c2c(=O)n(C)c(=O)n3C)cc1 | 0.091 | – | – | –
CC(=O)Nc1ccc(-c2nc3c(c(=O)n(C)c(=O)n3C)n2-c2cccc(F)c2)cc1 | 0.068 | 0.9 | 15.4 | 1.7
COc1ccc(-n2c(-c3ccc(NC(C)=O)cc3)nc3c2c(=O)n(C)c(=O)n3C)cc1OC | 0.51 | – | – | –
COc1ccc(-n2c(-c3ccc(N(C)C)cc3)nc3c2c(=O)n(C)c(=O)n3C)cc1 | 22 | – | – | –
COc1ccc(-n2c(-c3cccc(NS(C)(=O)=O)c3)nc3c2c(=O)n(C)c(=O)n3C)cc1 | 3.2 | – | – | –
CNC(=O)Nc1ccc(-c2nc3c(c(=O)n(C)c(=O)n3C)n2-c2ccc(OC)c(F)c2)cc1 | 0.017 | 4.7 | > 25 | 11.6
COc1ccc(-n2c(-c3ccc(NC(C)=O)cc3)nc3c2c(=O)n(C)c(=O)n3C)cc1 | 0.15 | 3.7 | > 25 | 9.4
CN(C)c1ccc(-c2nc3c(c(=O)n(C)c(=O)n3C)n2-c2cccc(F)c2)cc1 | 20 | – | – | –
COc1ccc(-n2c(-c3cnccc3NS(C)(=O)=O)nc3c2c(=O)n(C)c(=O)n3C)cc1 | > 30 | – | – | –
COc1ccc(-n2c(-c3cncc(NS(=O)(=O)c4ccc(C)cc4)c3)nc3c2c(=O)n(C)c(=O)n3C)cc1 | 0.22 | – | – | –
COc1cc(N(C)C)ccc1-c1nc2c(c(=O)n(C)c(=O)n2C)n1-c1cc(F)cc(F)c1 | 15 | – | – | –
CC(=O)Nc1ccc(-c2nc3c(c(=O)n(C)c(=O)n3C)n2-c2ccccc2)cc1 | 12.5 | – | – | –
COc1ccc(-n2c(-c3ccc(NC(C)=O)c(OC)c3)nc3c2c(=O)n(C)c(=O)n3C)cc1F | 8.5 | – | – | –
CN(C)c1ccc(-c2nc3c(c(=O)n(C)c(=O)n3C)n2-c2ccc(Cl)c(Cl)c2)cc1 | > 30 | – | – | –
CN(C)c1ccc(-c2nc3c(c(=O)n(C)c(=O)n3C)n2-c2cc(F)cc(F)c2)cc1 | 25 | – | – | –
CC(=O)Nc1ccc(-c2nc3c(c(=O)n(C)c(=O)n3C)n2-c2ccc(Cl)c(Cl)c2)cc1 | 0.28 | – | – | –
COc1cc(NC(C)=O)ccc1-c1nc2c(c(=O)n(C)c(=O)n2C)n1-c1ccc(Cl)c(Cl)c1 | 13 | – | – | –
COc1ccc(-n2c(-c3ccc(NC(C)=O)cc3)nc3c2c(=O)n(C)c(=O)n3C)cc1F | 0.031 | 1.6 | 11.5 | 2.8
COC(=O)Nc1ccc(-c2nc3c(c(=O)n(C)c(=O)n3C)n2-c2ccc(OC)cc2)cc1 | 0.21 | 1.7 | > 25 | 4.2
COc1ccc(-n2c(-c3ccc(N(C)C)cc3)nc3c2c(=O)n(C)c(=O)n3C)cc1F | 22 | – | – | –
COc1ccc(-n2c(-c3cncc(NS(C)(=O)=O)c3)nc3c2c(=O)n(C)c(=O)n3C)cc1 | 4.5 | – | – | –
COc1cc(N(C)C)ccc1-c1nc2c(c(=O)n(C)c(=O)n2C)n1-c1cccc(F)c1 | 22 | – | – | –
CC(=O)Nc1ccc(-c2nc3c(c(=O)n(C)c(=O)n3C)n2-c2ccc(C)cc2)cc1 | 0.37 | – | – | –
